The source made the active and inactive calls. The rule behind the calls is not given here. Starred links: 1 amine or outer side, 2 acyl side, 3 side chain; linkers in the order of their positions; H or OH if unused. Positions of bridges follow the written chain, without caps; N, C: chain ends. Non-standard residues stand in square brackets, D forms with d. Residues, ends and D or L forms follow the SMILES beside them. Chains are numbered I, II in the order given. Actinocin(1to9) = Cc1c2oc3c(C)ccc(C(=O)[*:2])c3nc-2c(C(=O)[*:1])c(N)c1=O; NMeV = CN[C@H](C(=O)O)C(C)C; Sar = CNCC(=O)O
Legend:
Calf thymus DNA [1] = test: Ability to displace ethidium bromide from DNA; assay type: nucleic-acid assay
PC-3 = test: Antiproliferative activity against PC3 cells; assay type: functional, cell-based; conditions: Homo sapiens
[2] = molecular target: Cyclin-dependent kinase 4/cyclin D1 (Homo sapiens, UniProt P11802); test: Inhibition of Cdk4/Cyclin D1; assay type: protein-complex assay
Sequence of Cyclin-dependent kinase 4/cyclin D1 (P11802 whole entry): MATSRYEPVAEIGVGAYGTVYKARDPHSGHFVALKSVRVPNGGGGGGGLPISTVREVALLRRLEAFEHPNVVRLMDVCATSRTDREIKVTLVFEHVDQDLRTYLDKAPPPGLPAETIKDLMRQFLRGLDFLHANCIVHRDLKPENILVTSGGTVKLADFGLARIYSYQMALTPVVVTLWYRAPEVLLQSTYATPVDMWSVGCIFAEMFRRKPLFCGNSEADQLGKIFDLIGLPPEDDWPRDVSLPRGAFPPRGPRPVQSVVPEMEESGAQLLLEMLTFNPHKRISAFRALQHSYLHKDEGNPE
Sequence of Cyclin-dependent kinase 4/cyclin D1 (P24385 whole entry, further chain): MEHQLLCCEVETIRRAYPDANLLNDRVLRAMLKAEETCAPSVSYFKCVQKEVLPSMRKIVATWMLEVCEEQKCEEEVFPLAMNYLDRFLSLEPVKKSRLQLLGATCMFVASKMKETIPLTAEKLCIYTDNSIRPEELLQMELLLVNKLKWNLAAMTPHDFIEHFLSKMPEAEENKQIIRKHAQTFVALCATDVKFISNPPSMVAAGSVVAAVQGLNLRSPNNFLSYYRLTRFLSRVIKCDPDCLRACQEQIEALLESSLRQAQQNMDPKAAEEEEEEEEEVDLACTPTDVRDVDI

[3] = molecular target: Cyclin-dependent kinase 2/cyclin A (Homo sapiens, UniProt P24941); test: Inhibition of Cdk2/Cyclin A; assay type: protein-complex assay
A549 = test: Antiproliferative activity against A549 cells; assay type: functional, cell-based; conditions: Homo sapiens
Calu-1 [4] = test: Antiproliferative activity against Calu1 cells; assay type: functional, cell-based; conditions: Homo sapiens
LS174T = test: Antiproliferative activity against LS174T cells; assay type: functional, cell-based; conditions: Homo sapiens
[5] = molecular target: Cyclin-dependent kinase 4 (Homo sapiens) (UniProt P11802); test: Inhibition of Cdk4-mediated phosphorylation of pRB in Calu1 cells at ser 795 residue at 6.2 uM after 24 hrs by Western blot analysis; assay type: functional, cell-based; conditions: Calu-1
Sequence of Cyclin-dependent kinase 4 (Homo sapiens) (P11802 whole entry): as the sequence (P11802 whole entry) above

Calf thymus DNA [6] = test: Ability to displace ethidium bromide from DNA at 100 uM; assay type: nucleic-acid assay
[7] = molecular target: T1, DNA topoisomerase 1 (Homo sapiens) (UniProt P11387); test: Inhibition of DNA relaxation catalysed by topoisomerase1 at 100 uM; assay type: functional
T1 sequence (whole entry): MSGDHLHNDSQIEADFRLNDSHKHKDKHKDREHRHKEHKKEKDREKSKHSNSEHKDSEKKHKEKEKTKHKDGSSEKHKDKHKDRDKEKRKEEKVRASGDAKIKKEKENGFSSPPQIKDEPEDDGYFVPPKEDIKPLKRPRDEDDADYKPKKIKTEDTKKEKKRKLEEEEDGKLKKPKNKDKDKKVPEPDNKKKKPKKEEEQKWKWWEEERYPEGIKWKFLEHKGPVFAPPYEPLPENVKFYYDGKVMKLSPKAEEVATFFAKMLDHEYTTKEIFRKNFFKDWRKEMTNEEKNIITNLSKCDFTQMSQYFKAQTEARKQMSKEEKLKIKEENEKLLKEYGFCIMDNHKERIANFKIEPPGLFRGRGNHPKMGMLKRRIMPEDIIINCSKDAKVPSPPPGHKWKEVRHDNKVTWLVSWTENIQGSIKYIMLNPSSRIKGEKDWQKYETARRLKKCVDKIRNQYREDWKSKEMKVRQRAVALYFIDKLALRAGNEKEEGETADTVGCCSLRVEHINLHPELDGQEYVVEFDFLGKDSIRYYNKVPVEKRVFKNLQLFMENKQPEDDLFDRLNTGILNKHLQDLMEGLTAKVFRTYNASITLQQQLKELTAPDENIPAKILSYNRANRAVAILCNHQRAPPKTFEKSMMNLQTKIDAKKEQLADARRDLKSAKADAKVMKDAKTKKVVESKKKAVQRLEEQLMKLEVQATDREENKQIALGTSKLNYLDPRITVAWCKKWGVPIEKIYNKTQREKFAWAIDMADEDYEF

[8] = molecular target: T1, DNA topoisomerase 1 (Homo sapiens); test: Inhibition of DNA relaxation catalysed by topoisomerase1 at 10 uM; assay type: functional
Calu-1 [9] = test: Cell cycle arrest in serum-starved Calu1 cells by accumulation at G2/M phase after 24 hrs by FACS analysis; assay type: functional, Homo sapiens
[10] = molecular target: Cyclin-dependent kinase 4 (Homo sapiens) (UniProt P11802); test: Inhibition of Cdk4-mediated phosphorylation of pRB in Calu1 cells at ser 780 residue after 24 hrs by Western blot analysis; assay type: functional, cell-based; conditions: Calu-1
Calu-1 [11] = test: Cell cycle arrest in serum-starved Calu1 cells by accumulation at G0/G1 phase after 24 hrs by FACS analysis; assay type: functional, Homo sapiens
Calu-1 [12] = test: Ratio of cell cycle arrest in serum-starved Calu1 cells at G0/G1phase to S phase after 24 hrs by FACS analysis; assay type: functional, Homo sapiens
[13] = molecular target: Cyclin-dependent kinase 4 (Homo sapiens) (UniProt P11802); test: Inhibition of Cdk4-mediated phosphorylation of pRB in Calu1 cells at ser 795 residue after 24 hrs by Western blot analysis; assay type: functional, cell-based; conditions: Calu-1
[14] = molecular target: Cyclin-dependent kinase 4 (Homo sapiens) (UniProt P11802); test: Inhibition of Cdk4-mediated phosphorylation of pRB in Calu1 cells at ser […] residue at 6.2 uM after 24 hrs by Western blot analysis; assay type: functional, cell-based; conditions: Calu-1
Homo sapiens = organism: Homo sapiens; test: Selectivity for Cdk4/Cyclin D1 over Cdk2/Cyclin A
[15] = molecular target: Cyclin-dependent kinase 4 (Homo sapiens) (UniProt P11802); test: Inhibition of Cdk4-mediated phosphorylation of pRB in Calu1 cells at ser […] residue after 24 hrs by Western blot analysis; assay type: functional, cell-based; conditions: Calu-1
Calu-1 [16] = test: Cell cycle arrest in serum-starved Calu1 cells by accumulation at S phase after 24 hrs by FACS analysis; assay type: functional, Homo sapiens
[17] = molecular target: Cyclin-dependent kinase 4 (Homo sapiens) (UniProt P11802); test: Inhibition of Cdk4-mediated phosphorylation of pRB in Calu1 cells at ser 780 residue at 6.2 uM after 24 hrs by Western blot analysis; assay type: functional, cell-based; conditions: Calu-1

Structure (SMILES)	Activity (Calf thymus DNA [1])	IC50 (PC-3)	IC50 [2]	IC50 [3]	IC50 (A549)	IC50 (Calu-1 [4])	IC50 (LS174T)	further results
CN(CCc1c[nH]c2ccccc12)C(=O)c1cccc(F)c1	inactive	98 µM	88 µM	765 µM	106 µM	136 µM	97 µM	–
CN(CCc1c[nH]c2ccccc12)C(=O)c1ccc(-c2ccccc2)cc1	inactive	6.2 µM	6.2 µM	521 µM	3.5 µM	11.5 µM	3.5 µM	Activity [5]: Active; Activity (Calf thymus DNA [6]): < 5%; Activity [7]: inactive; Activity [8]: inactive; Activity (Calu-1 [9]): 30%; Activity [10]: Active; Activity (Calu-1 [11]): 64%; Ratio (Calu-1 [12]): 16; Activity [13]: Active; Activity [14]: Active; Selectivity ratio (Homo sapiens): 100; Activity [15]: Active; Activity (Calu-1 [16]): 4%; Activity [17]: Active
CN(CCc1c[nH]c2ccccc12)C(=O)c1cccc(Br)c1	inactive	66 µM	74 µM	635 µM	91 µM	144 µM	89 µM	–
CN(CCc1c[nH]c2ccccc12)C(=O)c1ccc(F)cc1	inactive	94 µM	59 µM	850 µM	102 µM	141 µM	87 µM	–
CN(CCc1c[nH]c2ccccc12)C(=O)c1ccccc1F	inactive	108 µM	103 µM	1230 µM	103 µM	145 µM	110 µM	–
CN(CCc1c[nH]c2ccccc12)C(=O)c1ccc(Cl)cc1	inactive	47 µM	38 µM	731 µM	27 µM	78 µM	42 µM	–
CN(CCc1c[nH]c2ccccc12)C(=O)c1ccc(Br)cc1	inactive	36 µM	37 µM	580 µM	55 µM	64 µM	52 µM	–
Cc1c2oc3c(C)ccc(C(=O)N[C@@H]4C(=O)N[C@H](C(C)C)C(=O)N5CCC[C@H]5C(=O)N(C)CC(=O)N(C)[C@@H](C(C)C)C(=O)O[C@@H]4C)c3nc-2c(C(=O)N[C@@H]2C(=O)N[C@H](C(C)C)C(=O)N3CCC[C@H]3C(=O)N(C)CC(=O)N(C)[C@@H](C(C)C)C(=O)O[C@@H]2C)c(N)c1=O [DACTINOMYCIN] (I: T[dV]P[Sar][NMeV] / II: T[dV]P[Sar][NMeV]; ester I:1-I:C, II:1-II:C; linker I:N-II:N via Actinocin(1to9))	–	–	–	–	–	–	–	IC50 (Calf thymus DNA [1]): 35 µM
CN(CCc1c[nH]c2ccccc12)C(=O)c1ccc(C(C)(C)C)cc1	inactive	15 µM	49 µM	658 µM	12 µM	52 µM	18 µM	–
COc1cccc(C(=O)N(C)CCc2c[nH]c3ccccc23)c1	inactive	85 µM	81 µM	938 µM	95 µM	139 µM	109 µM	–
COc1ccccc1C(=O)N(C)CCc1c[nH]c2ccccc12	inactive	89 µM	79 µM	849 µM	103 µM	146 µM	106 µM	–
Cc1ccccc1C(=O)N(C)CCc1c[nH]c2ccccc12	inactive	92 µM	113 µM	1130 µM	110 µM	141 µM	105 µM	–
Cc1ccc(C(=O)N(C)CCc2c[nH]c3ccccc23)cc1	inactive	55 µM	63 µM	790 µM	92 µM	103 µM	82 µM	–
CN(CCc1c[nH]c2ccccc12)C(=O)c1ccccc1Br	inactive	59 µM	95 µM	584 µM	95 µM	122 µM	76 µM	–
CN(CCc1c[nH]c2ccccc12)C(=O)c1ccccc1Cl	inactive	92 µM	46 µM	784 µM	96 µM	147 µM	99 µM	–
CN(CCc1c[nH]c2ccccc12)C(=O)c1cccc(Cl)c1	inactive	94 µM	109 µM	1120 µM	95 µM	123 µM	118 µM	–
Cc1cccc(C(=O)N(C)CCc2c[nH]c3ccccc23)c1	inactive	81 µM	78 µM	830 µM	96 µM	136 µM	88 µM	–
CN(CCc1c[nH]c2ccccc12)C(=O)c1ccccc1	inactive	86 µM	88 µM	1520 µM	95 µM	104 µM	83 µM	–

Reference: ChEMBL document CHEMBL1138971, “CA224, a non-planar analogue of fascaplysin, inhibits Cdk4 but not Cdk2 and arrests cells at G0/G1 inhibiting pRB phosphorylation” (Bioorg Med Chem Lett, 2006)
